According to US9717665B2, “Tooth desensitizing oral care compositions, devices, and methods” (The Procter & Gamble Company, priority 2013, dated 2017):

Tested on: human 3rd molar coronal dentin
Assay: Dentinal flow rate measurement (Pashley-like flow cell)
Conditions: repeated deposition
Method: Volumetric flow rates through cross-sections of human 3rd molar coronal dentin are measured before and after treatment using a flow cell apparatus (FIG. 6). Twenty two coronal dentin sections of human molars are obtained by cross sectional cutting with a diamond blade saw to a thickness between 0.80 and 1.00 mm. The sections resemble disks due to the circular nature of molars. The center of the disk is dentin 90 with a thin ring of enamel around the circumference (FIG. 6). The cut dentin disks are then placed in 6.0% citric acid for two minutes followed by sonication in water and subsequent rinsing to remove the smear layer created by the cutting process. The removal of the smear layer with citric acid is an effective and well known technique to produce open dentinal tubules representative of sensitive dentin found in-vivo. […]
Each dentin disk section is centered over the opening with flat washers 110 and bushing 120 on each side, making sure that the section spanned the opening with at least 1 mm overlap around the entire perimeter. […] The liquid velocity is recorded by timing the movement of the bubble within the supply line. […] Using a digital stop watch, elapsed times are recorded over 4 equidistant points along the ruler to establish the average rate the bubble travels and to ensure the velocity is constant. […]

## O=C(O)C(=O)O [oxalate]
  Flow rates through dentin: significantly reduce flow rates through dentin
